Usually EC50 stands for the midpoint of the concentration-response curve. One may read the melting point as the temperature, or range, at which the solid turns liquid.

For 22 compounds, EC50 and melting point results are on record in patent US7759326B2, “Aminophosphonic acid derivative, salt thereof, and modulator of S1P receptor” (Kyorin Pharmaceutical Co., Ltd., priority 2003, dated 2010).

The target in one series is T1, hS1P1 receptors (Homo sapiens, UniProt P21453).
T1 construct: expressed in transfected cells; host or cells: CHO cells (Geneticin-selected)
Nature of the series: Intracellular Ca2+ mobilization in CHO cells expressing human S1P receptors (hS1P1). Particulars: read-out: S1P1 (EC50 class, intracellular Ca2+ mobilization). Type of series: cell-based. The procedure: (§1) Test for the Ability of Test Compounds to Induce Intracellular Ca^2+ Mobilization in Cells Expressing Human S1P (Sphingosine-1-Phosphate) Receptors
(§2) CHO cells expressing human S1P receptors (i.e., CHO cells expressing hS1P1 receptors or hS1P3 receptors) were subcultured on Ham's F-12 medium supplemented with 10% fetal bovine serum and 200 μg/mL Geneticin. The cells were seeded on a 96-well black clear bottom plate (COSTAR) at 4×10^4 cells/well and were cultured overnight at 37° C. in 5% CO2. A fluorescent reagent that emits fluorescence upon binding to Ca^2+ (Calcium Screening Kit (DOJINDO)) was added to the culture and the cells were further cultured for 60 min at 37° C. in 5% CO2. After culturing, microplate spectrofluorometer (FLEX station, MOLECULAR DEVICE) was used to measure the fluorescence intensity at an excitation wavelength of 485 nm and a detection wavelength of 525 nm. S1P or a test compound adjusted with cultural medium to a concentration 10 times higher than the final concentration (final DMSO concentration=0.1%). Each test compound solution was added 18 sec. after beginning of the measurement of fluorescence. The fluorescence intensity was measured every 1.5 sec for 100 sec. For each test compound, the difference between the maximum fluorescence intensity and the minimum fluorescence intensity (i.e., increase in fluorescence) was determined from the measurements. The rate of fluorescence increase (%) for each test compound was calculated by the difference (100%) of the fluorescence increase between solvent only and S1P (10^−6M). Using this value as an index of the ability of the test compound to induce intracellular Ca^2+ mobilization, EC50 was determined by PRISM software (GraphPad).
(A change in cytosolic calcium serves as a functional read-out for many receptors and channels.)

A further series concerns the target T2, hS1P3 receptors (Homo sapiens, UniProt Q99500).
T2 construct: expressed in transfected cells; host or cells: CHO cells (Geneticin-selected)
The series can be described thus: Intracellular Ca2+ mobilization in CHO cells expressing human S1P receptors (hS1P3). Type of series: cell-based. Particulars: read-out: S1P3 (EC50 class, intracellular Ca2+ mobilization). The procedure:
as §1, §2

Counter-ions that a name gives are not always drawn.

T1 sequence (P21453 whole entry): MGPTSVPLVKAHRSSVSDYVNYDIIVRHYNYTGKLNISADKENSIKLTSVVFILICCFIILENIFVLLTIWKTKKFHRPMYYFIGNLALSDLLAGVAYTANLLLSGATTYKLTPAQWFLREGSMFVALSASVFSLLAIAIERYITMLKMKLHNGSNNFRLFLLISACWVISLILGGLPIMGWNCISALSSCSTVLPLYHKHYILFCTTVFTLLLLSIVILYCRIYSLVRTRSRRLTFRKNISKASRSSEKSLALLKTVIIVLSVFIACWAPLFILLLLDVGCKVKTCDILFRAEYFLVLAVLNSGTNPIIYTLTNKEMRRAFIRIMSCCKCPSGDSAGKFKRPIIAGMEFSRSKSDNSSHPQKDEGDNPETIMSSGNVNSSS
T2 sequence (Q99500 whole entry): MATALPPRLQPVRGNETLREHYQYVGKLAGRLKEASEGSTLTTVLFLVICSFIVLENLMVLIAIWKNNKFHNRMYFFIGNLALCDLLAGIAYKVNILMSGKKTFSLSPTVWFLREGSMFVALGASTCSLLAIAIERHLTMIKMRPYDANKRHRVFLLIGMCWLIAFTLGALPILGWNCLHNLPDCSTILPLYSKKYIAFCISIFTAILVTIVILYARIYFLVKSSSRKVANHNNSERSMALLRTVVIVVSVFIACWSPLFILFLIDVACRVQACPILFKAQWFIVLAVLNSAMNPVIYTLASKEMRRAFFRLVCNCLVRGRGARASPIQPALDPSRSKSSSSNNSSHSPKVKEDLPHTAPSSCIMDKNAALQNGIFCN

As for `CC(N)(CCc1ccc(Sc2cccc(OCc3ccccc3)c2)cc1Cl)COP(=O)(O)O` (single isomer, unassigned; (+)) [Example 249, (+)-2-amino-4-[4-(3-benzyloxyphenylthio)-2-chlorophenyl]-2-methylbutylphosphonate monoester], the EC50 was 10 to 100 nM at hS1P1 receptors and less than 10 nM at hS1P3 receptors.
As for `Cl.NC(CO)(CCCc1ccc(Sc2cccc(OCc3ccccc3)c2)cc1Cl)CP(=O)(O)O` (stereo not drawn) [Example 286, 2-amino-5-[4-(3-benzyloxyphenylthio)-2-chlorophenyl]-2-hydroxymethylpentylphosphonate hydrochloride], the melting point fell in the range of 98 to 101 °C. Also, the EC50 at hS1P1 receptors lay within 10 to 100 nM. Besides, the EC50 on hS1P3 receptors is no less than 1000 nM.
Taken in the same sequence, the figures for `NC(/C=C/P(=O)(O)O)(CO)CCCCc1ccc(Sc2cccc(OCc3ccccc3)c2)cc1Cl` (stereo not drawn) [Example 290, 3-amino-[4-(3-benzyloxyphenylthio)-2-chlorophenyl]-3-hydroxymethyl-1-heptenylphosphonic acid] were 258 to 260 °C, less than 10 nM and 10 to 100 nM.
The compound `NC(CO)(CCCCc1ccc(Sc2cccc(OCc3ccccc3)c2)cc1Cl)CCP(=O)(O)O` (stereo not drawn) [Example 289, 3-amino-[4-(3-benzyloxyphenylthio)-2-chlorophenyl]-3-hydroxymethylheptylphosphonic acid] registered a melting point of 180 to 183 °C.
`NC(CO)(CCc1ccc(Sc2cccc(OCc3ccccc3)c2)cc1Cl)CCP(=O)(O)O` (stereo not drawn) [Example 269, 3-amino-5-[4-(3-benzyloxyphenylthio)-2-chlorophenyl]-3-hydroxymethylpentylphosphonic acid] returned a melting point of 205 to 208 °C. Moreover, the concentration giving a half-maximal response (EC50) at hS1P1 receptors lay within 10 to 100 nM. The EC50 at hS1P3 receptors was no less than 1000 nM.
`CC(N)(CCCc1ccc(Sc2cccc(OCc3ccccc3)c2)cc1Cl)COP(=O)(O)O` (single isomer, unassigned; (-)) [Example 240, (−)-2-amino-5-[4-(3-benzyloxyphenylthio)-2-chlorophenyl]-2-methylpentylphosphonate monoester]: the melting point is 200 to 203 °C. Further, the EC50 at hS1P1 receptors fell in the range of 10 to 100 nM. Moreover, the EC50 on hS1P3 receptors is 100 to 1000 nM.
`CCCC(N)(CCCc1ccc(Sc2cccc(OCc3ccccc3)c2)cc1Cl)CCP(=O)(O)O` (stereo not drawn) [Example 284, 3-amino-6-[4-(3-benzyloxyphenylthio)-2-chlorophenyl]-3-propylhexylphosphonic acid]: the figures for the EC50 at hS1P1 receptors and on hS1P3 receptors were 10 to 100 nM and 100 to 1000 nM, respectively.
`NC(CO)(CCCc1ccc(Sc2cccc(OCc3ccccc3)c2)cc1Cl)CCP(=O)(O)O` (stereo not drawn) [Example 265, 3-amino-6-[4-(3-benzyloxyphenylthio)-2-chlorophenyl]-3-hydroxymethylhexylphosphonic acid] yielded a melting point of 193 to 196 °C. In addition, the 50% effective concentration (EC50) on hS1P1 receptors is less than 10 nM. Further, the EC50 at hS1P3 receptors fell in the range of 100 to 1000 nM.
Take `NC(CO)(CCCc1ccc(Oc2cccc(C(F)(F)F)c2)cc1Cl)CCP(=O)(O)O` (stereo not drawn) [Example 296, 3-amino-6-[2-chloro-4-(3-trifluoromethylphenoxy)phenyl]-3-hydroxymethylhexylphosphonic acid]: the concentration giving a half-maximal response (EC50) is 10 to 100 nM at hS1P1 receptors and no less than 1000 nM on hS1P3 receptors.
Taken in the same sequence, the figures for `CC(N)(CCc1ccc(Sc2cccc(OCc3ccccc3)c2)cc1Cl)COP(=O)(O)O` (single isomer, unassigned; (-)) [Example 250, (−)-2-amino-4-[4-(3-benzyloxyphenylthio)-2-chlorophenyl]-2-methylbutylphosphonate monoester] were 100 to 1000 nM and no less than 1000 nM.
With `NC(CO)(CCCc1ccc(Sc2cccc(C(F)(F)F)c2)cc1Cl)COP(=O)(O)O` (stereo not drawn) [Example 299, 2-amino-5-[2-chloro-4-(3-trifluoromethylphenylthio)phenyl]-2-hydroxymethylpentylphosphonate monoester], the EC50 at hS1P1 receptors is 10 to 100 nM; at hS1P3 receptors, no less than 1000 nM.
Taken in the same sequence, the figures for `CCCC(N)(/C=C/P(=O)(OC)OC)CCCc1ccc(Sc2cccc(OCc3ccccc3)c2)cc1Cl` (stereo not drawn) [Example 280, Dimethyl 3-amino-6-[4-(3-benzyloxyphenylthio)-2-chlorophenyl]-3-propyl-1-hexenylphosphonate hydrochloride] were 100 to 1000 nM and 100 to 1000 nM.
The compound `NC(/C=C(/F)P(=O)(O)O)CCc1ccc(Sc2cccc(OCc3ccccc3)c2)cc1Cl` (stereo not drawn) [Example 253, (Z)-3-amino-5-[4-(3-benzyloxyphenylthio)-2-chlorophenyl]-1-fluoro-1-pentenylphosphonic acid] showed a melting point of 285 to 288 °C. On hS1P1 receptors, the EC50 is 100 to 1000 nM. Besides, the EC50 at hS1P3 receptors lay in the range of 100 to 1000 nM.
`NC(/C=C/P(=O)(O)O)(CO)CCCc1ccc(Sc2cccc(OCc3ccccc3)c2)cc1Cl` (stereo not drawn) [Example 263, 3-amino-[4-(3-benzyloxyphenylthio)-2-chlorophenyl]-3-hydroxymethyl-1-hexenylphosphonic acid] displayed a melting point of 243 to 246 °C. Also, the EC50 on hS1P1 receptors is less than 10 nM. Further, on hS1P3 receptors, the half-maximal effective concentration (EC50) was in the range of 100 to 1000 nM.
In the case of `CC(N)(/C=C/P(=O)(O)O)CCCc1ccc(Sc2cccc(OCc3ccccc3)c2)cc1Cl` (racemic) [Example 261, 3-amino-6-[4-(3-benzyloxyphenylthio)-2-chlorophenyl]-3-methyl-1-hexenylphosphonic acid], the melting point lay in the range of 243 to 245 °C. Moreover, the EC50 on hS1P1 receptors was in the range of 100 to 1000 nM. The EC50 at hS1P3 receptors is no less than 1000 nM.
In the case of `NC(/C=C/P(=O)(O)O)(CO)CCc1ccc(Sc2cccc(OCc3ccccc3)c2)cc1Cl` (stereo not drawn) [Example 267, 3-amino-5-[4-(3-benzyloxyphenylthio)-2-chlorophenyl]-3-hydroxymethyl-1-pentenylphosphonic acid], the melting point is 245 to 248 °C. The 50% effective concentration (EC50) at hS1P1 receptors is less than 10 nM. Further, the EC50 on hS1P3 receptors was no less than 1000 nM.
Take `NC(CO)(CCCc1ccc(Sc2cccc(OCc3ccccc3)c2)cc1Cl)C(O)C(F)(F)P(=O)(O)O` (stereo not drawn) [Example 293, 3-amino-6-[4-(3-benzyloxyphenylthio)-2-chlorophenyl]-1,1-difluoro-2-hydroxy-3-hydroxymethylhexylphosphonic acid]: the EC50 at hS1P1 receptors and at hS1P3 receptors was 100 to 1000 nM throughout.
For the compound `NC(CO)(CCCc1ccc(Oc2cccc(C(F)(F)F)c2)cc1Cl)COP(=O)(O)O` (stereo not drawn) [Example 300], the concentration for a half-maximal effect (EC50) at hS1P1 receptors is 10 to 100 nM; on hS1P3 receptors, no less than 1000 nM.
Regarding `NC(CO)(CCc1ccc(Sc2ccc(OCc3ccccc3)cc2)cc1Cl)CCP(=O)(O)O` (stereo not drawn) [Example 308, 3-amino-5-[4-(4-benzyloxyphenylthio)-2-chlorophenyl]-3-hydroxymethylpentylphosphonic acid], the results for the EC50 at hS1P1 receptors and at hS1P3 receptors were 100 to 1000 nM and no less than 1000 nM, respectively.
Taken in the same sequence, the figures for `CCCC(N)(/C=C/P(=O)(O)O)CCCc1ccc(Sc2cccc(OCc3ccccc3)c2)cc1Cl` (stereo not drawn) [Example 283, 3-amino-6-[4-(3-benzyloxyphenylthio)-2-chlorophenyl]-3-propyl-1-hexenylphosphonic acid] were 10 to 100 nM and 10 to 100 nM.
On to `NC(/C=C(\F)P(=O)(O)O)CCc1ccc(Sc2cccc(OCc3ccccc3)c2)cc1Cl` (stereo not drawn) [Example 254, (E)-3-amino-5-[4-(3-benzyloxyphenylthio)-2-chlorophenyl]-1-fluoro-1-pentenylphosphonic acid], for which the melting point lay in the range of 288 to 290 °C. Further, the EC50 on hS1P1 receptors lay within 10 to 100 nM. In addition, the EC50 at hS1P3 receptors is no less than 1000 nM.
Taken in the same sequence, the figures for `CC(N)(CCCc1ccc(Sc2cccc(OCc3ccccc3)c2)cc1Cl)CCP(=O)(O)O` (stereo not drawn) [Example 260, 3-amino-6-[4-(3-benzyloxyphenylthio)-2-chlorophenyl]-3-methylhexylphosphonic acid] were 195 to 197 °C, 10 to 100 nM and 100 to 1000 nM.
